Results: patent US20020137929A1, “1 - (3-heterocyclylphenyl) isothiourea, -isourea, -guanidine and -amidine herbicidal agents” (Intellectual Property Department, BASF Aktiengesellschaft, priority 1998, published 2002)

Key:
GALAP (Galium) = assay: Preemergence herbicidal evaluation; assay type: in vivo, Galium aparine; conditions: rated 4-5 weeks after treatment
Summary of the method: (§1)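 Herbicidal effect scored visually, 0-9, at 4 to 5 weeks against a control; compound applied preemergence by aqueous acetone spray to seeded soil at about 0.0156 to 0.500 kg/ha.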

[1] = tested on: IPOHE (Morningglory, Ivyleaf); assay: Postemergence herbicidal evaluation; assay type: in vivo, Ipomoea hederacea; conditions: for herbicidal rating IPOHE: postemergence
Summary of the method: (§2)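 First, seedlings were raised for around two weeks. Next, test material in 50/50 acetone/water containing 0.5% TWEEN 20 was sprayed through a nozzle at 40 psi, equivalent to about 0.0156–0.500 kg/ha. Finally, after 4–5 weeks in the greenhouse, plants were rated 0–9.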

ABUTH (Velvetleaf) = assay: Postemergence herbicidal evaluation; assay type: in vivo, Abutilon theophrasti; conditions: for herbicidal rating ABUTH: postemergence
Summary of the method: as §2

[2] = tested on: CHEAL (Lambsquarters, Common); assay: Preemergence herbicidal evaluation; assay type: in vivo, Chenopodium album; conditions: rated 4-5 weeks after treatment
Summary of the method: as §1

[3] = tested on: IPOHE (Morningglory, Ivyleaf); assay: Preemergence herbicidal evaluation; assay type: in vivo, Ipomoea hederacea; conditions: rated 4-5 weeks after treatment
Summary of the method: as §1

ECHCG (Barnyardgrass) [4] = assay: Postemergence herbicidal evaluation; assay type: in vivo, Echinochloa crus-galli; conditions: for herbicidal rating ECHCG: postemergence
Summary of the method: as §2

CASOB (Sicklepod) = assay: Preemergence herbicidal evaluation; assay type: in vivo, Cassia obtusifolia; conditions: rated 4-5 weeks after treatment
Summary of the method: as §1

ZEAMX (Corn, Field) = assay: Preemergence herbicidal evaluation; assay type: in vivo, Zea mays; conditions: rated 4-5 weeks after treatment
Summary of the method: as §1

ECHCG (Barnyardgrass) [5] = assay: Preemergence herbicidal evaluation; assay type: in vivo, Echinochloa crus-galli; conditions: rated 4-5 weeks after treatment
Summary of the method: as §1

SETVI (Foxtail, Green) = assay: Postemergence herbicidal evaluation; assay type: in vivo, Setaria viridis; conditions: for herbicidal rating SETVI: postemergence
Summary of the method: as §2

[6] = tested on: GLXMAW (Soybean, Williams); assay: Postemergence herbicidal evaluation; assay type: in vivo, Glycine max, (L.) Merr. cv Williams; conditions: for herbicidal rating GLXMAW: postemergence
Summary of the method: as §2

[7] = tested on: TRZAWR (Wheat, Winter, cv Riband); assay: Postemergence herbicidal evaluation; assay type: in vivo, Triticum aestivum; conditions: for herbicidal rating TRZAWR: postemergence
Summary of the method: as §2

AMBEL (Ragweed, Common) = assay: Postemergence herbicidal evaluation; assay type: in vivo, Ambrosia artemisifolia; conditions: for herbicidal rating AMBEL: postemergence
Summary of the method: as §2

C#CC(C)N1C(=O)CSC1=Nc1cc(-n2c(=O)cc(C(F)(F)F)n(C)c2=O)c(F)cc1Cl (stereo not shown) [Compound 165, 3-{4-Chloro-2-fluoro-5-{[3-(1-methyl-2-propynyl)-4-oxo-2-thiazolidinylidene]amino}phenyl}-1-methyl-6-(trifluoromethyl)-2,4(1H,3H)-pyrimidinedione]
2.0: Preemergence herbicidal rating IPOHE ([3]; 0.1250 kg/ha) | herbicidal rating ECHCG (ECHCG (Barnyardgrass) [4]; rate 0.0156 kg/ha) | herbicidal rating SETVI (SETVI (Foxtail, Green); rate 0.0156 kg/ha) | herbicidal rating AMBEL (AMBEL (Ragweed, Common); rate 0.0156 kg/ha)
7.0: Preemergence herbicidal rating GALAP (GALAP (Galium); 0.2500 kg/ha) | Preemergence herbicidal rating CASOB (CASOB (Sicklepod); 0.2500 kg/ha) | Preemergence herbicidal rating CASOB (CASOB (Sicklepod); 0.5000 kg/ha) | Preemergence herbicidal rating ZEAMX (ZEAMX (Corn, Field); 0.5000 kg/ha) | Preemergence herbicidal rating ECHCG (ECHCG (Barnyardgrass) [5]; 0.5000 kg/ha) | herbicidal rating SETVI (SETVI (Foxtail, Green); rate 0.1250 kg/ha) | herbicidal rating GLXMAW ([6]; rate 0.1250 kg/ha) | herbicidal rating AMBEL (AMBEL (Ragweed, Common); rate 0.0625 kg/ha)
9.0: herbicidal rating IPOHE ([1]; rate 0.0156 kg/ha) | herbicidal rating IPOHE ([1]; rate 0.0313 kg/ha) | herbicidal rating IPOHE ([1]; rate 0.0625 kg/ha) | herbicidal rating IPOHE ([1]; rate 0.1250 kg/ha) | herbicidal rating ABUTH (ABUTH (Velvetleaf); rate 0.0156 kg/ha) | herbicidal rating ABUTH (ABUTH (Velvetleaf); rate 0.0313 kg/ha) | herbicidal rating ABUTH (ABUTH (Velvetleaf); rate 0.0625 kg/ha) | herbicidal rating ABUTH (ABUTH (Velvetleaf); rate 0.1250 kg/ha) | Preemergence herbicidal rating CHEAL ([2]; 0.0313 kg/ha) | Preemergence herbicidal rating CHEAL ([2]; 0.0625 kg/ha) | Preemergence herbicidal rating CHEAL ([2]; 0.1250 kg/ha) | Preemergence herbicidal rating CHEAL ([2]; 0.2500 kg/ha) | Preemergence herbicidal rating CHEAL ([2]; 0.5000 kg/ha) | Preemergence herbicidal rating IPOHE ([3]; 0.2500 kg/ha) | Preemergence herbicidal rating IPOHE ([3]; 0.5000 kg/ha) | herbicidal rating SETVI (SETVI (Foxtail, Green); rate 0.0625 kg/ha) | herbicidal rating AMBEL (AMBEL (Ragweed, Common); rate 0.1250 kg/ha)
5.0: herbicidal rating ECHCG (ECHCG (Barnyardgrass) [4]; rate 0.1250 kg/ha) | herbicidal rating GLXMAW ([6]; rate 0.0156 kg/ha) | herbicidal rating GLXMAW ([6]; rate 0.0313 kg/ha) | herbicidal rating TRZAWR ([7]; rate 0.1250 kg/ha)
0.0: Preemergence herbicidal rating GALAP (GALAP (Galium); 0.0156 kg/ha) | Preemergence herbicidal rating GALAP (GALAP (Galium); 0.0313 kg/ha) | Preemergence herbicidal rating GALAP (GALAP (Galium); 0.0625 kg/ha) | Preemergence herbicidal rating IPOHE ([3]; 0.0156 kg/ha) | Preemergence herbicidal rating IPOHE ([3]; 0.0313 kg/ha) | Preemergence herbicidal rating CASOB (CASOB (Sicklepod); 0.0313 kg/ha) | Preemergence herbicidal rating CASOB (CASOB (Sicklepod); 0.0625 kg/ha) | Preemergence herbicidal rating ZEAMX (ZEAMX (Corn, Field); 0.0156 kg/ha) | Preemergence herbicidal rating ZEAMX (ZEAMX (Corn, Field); 0.0313 kg/ha) | Preemergence herbicidal rating ECHCG (ECHCG (Barnyardgrass) [5]; 0.0156 kg/ha) | Preemergence herbicidal rating ECHCG (ECHCG (Barnyardgrass) [5]; 0.0313 kg/ha) | Preemergence herbicidal rating ECHCG (ECHCG (Barnyardgrass) [5]; 0.0625 kg/ha)
8.0: Preemergence herbicidal rating GALAP (GALAP (Galium); 0.5000 kg/ha)
6.0: Preemergence herbicidal rating ECHCG (ECHCG (Barnyardgrass) [5]; 0.2500 kg/ha) | herbicidal rating SETVI (SETVI (Foxtail, Green); rate 0.0313 kg/ha) | herbicidal rating AMBEL (AMBEL (Ragweed, Common); rate 0.0313 kg/ha)
4.0: Preemergence herbicidal rating GALAP (GALAP (Galium); 0.1250 kg/ha) | Preemergence herbicidal rating CHEAL ([2]; 0.0156 kg/ha) | herbicidal rating ECHCG (ECHCG (Barnyardgrass) [4]; rate 0.0313 kg/ha) | Preemergence herbicidal rating ZEAMX (ZEAMX (Corn, Field); 0.2500 kg/ha) | herbicidal rating TRZAWR ([7]; rate 0.0625 kg/ha)
3.0: herbicidal rating ECHCG (ECHCG (Barnyardgrass) [4]; rate 0.0625 kg/ha) | Preemergence herbicidal rating ECHCG (ECHCG (Barnyardgrass) [5]; 0.1250 kg/ha) | herbicidal rating TRZAWR ([7]; rate 0.0156 kg/ha) | herbicidal rating TRZAWR ([7]; rate 0.0313 kg/ha)
1.0: Preemergence herbicidal rating CASOB (CASOB (Sicklepod); 0.1250 kg/ha) | Preemergence herbicidal rating ZEAMX (ZEAMX (Corn, Field); 0.0625 kg/ha) | Preemergence herbicidal rating ZEAMX (ZEAMX (Corn, Field); 0.1250 kg/ha)
6.5: herbicidal rating GLXMAW ([6]; rate 0.0625 kg/ha)

CCCN1C(=O)CSC1=Nc1cc(-n2c(=O)cc(C(F)(F)F)n(C)c2=O)c(F)cc1Cl [Compound 171, 3-{4-Chloro-2-fluoro-5-[(4-oxo-3-propyl-2-thiazolidinylidene)amino]phenyl}-1-methyl-6-(trifluoromethyl)-2,4 (1H, 3H)-pyrimidinedione]
7.0: Postemergence herbicidal rating SETVI (SETVI (Foxtail, Green); Rate 0.0156 kg/ha) | Postemergence herbicidal rating SETVI (SETVI (Foxtail, Green); Rate 0.0313 kg/ha) | herbicidal rating GLXMAW ([6]; rate 0.0625 kg/ha)
9.0: Postemergence herbicidal rating IPOHE ([1]; Rate 0.0156 kg/ha) | Postemergence herbicidal rating IPOHE ([1]; Rate 0.0313 kg/ha) | herbicidal rating IPOHE ([1]; rate 0.0625 kg/ha) | Postemergence herbicidal rating ABUTH (ABUTH (Velvetleaf); Rate 0.0156 kg/ha) | Postemergence herbicidal rating ABUTH (ABUTH (Velvetleaf); Rate 0.0313 kg/ha) | herbicidal rating ABUTH (ABUTH (Velvetleaf); rate 0.0625 kg/ha) | Preemergence herbicidal rating CHEAL ([2]; 0.0156 kg/ha) | Preemergence herbicidal rating CHEAL ([2]; 0.0313 kg/ha) | Preemergence herbicidal rating CHEAL ([2]; 0.0625 kg/ha) | Preemergence herbicidal rating CHEAL ([2]; 0.1250 kg/ha) | Preemergence herbicidal rating CHEAL ([2]; 0.2500 kg/ha) | Preemergence herbicidal rating IPOHE ([3]; 0.0625 kg/ha) | Preemergence herbicidal rating IPOHE ([3]; 0.1250 kg/ha) | Preemergence herbicidal rating IPOHE ([3]; 0.2500 kg/ha) | Preemergence herbicidal rating CASOB (CASOB (Sicklepod); 0.2500 kg/ha) | Preemergence herbicidal rating ZEAMX (ZEAMX (Corn, Field); 0.2500 kg/ha) | Preemergence herbicidal rating ECHCG (ECHCG (Barnyardgrass) [5]; 0.1250 kg/ha) | Preemergence herbicidal rating ECHCG (ECHCG (Barnyardgrass) [5]; 0.2500 kg/ha) | herbicidal rating SETVI (SETVI (Foxtail, Green); rate 0.0625 kg/ha) | Postemergence herbicidal rating AMBEL (AMBEL (Ragweed, Common); Rate 0.0313 kg/ha) | herbicidal rating AMBEL (AMBEL (Ragweed, Common); rate 0.0625 kg/ha)
6.5: Postemergence herbicidal rating GLXMAW ([6]; Rate 0.0313 kg/ha)
4.0: Postemergence herbicidal rating ECHCG (ECHCG (Barnyardgrass) [4]; Rate 0.0156 kg/ha) | Postemergence herbicidal rating ECHCG (ECHCG (Barnyardgrass) [4]; Rate 0.0313 kg/ha) | Preemergence herbicidal rating CASOB (CASOB (Sicklepod); 0.0156 kg/ha) | Preemergence herbicidal rating CASOB (CASOB (Sicklepod); 0.1250 kg/ha) | Preemergence herbicidal rating ECHCG (ECHCG (Barnyardgrass) [5]; 0.0313 kg/ha) | Postemergence herbicidal rating TRZAWR ([7]; Rate 0.0156 kg/ha)
2.0: Preemergence herbicidal rating IPOHE ([3]; 0.0156 kg/ha) | Preemergence herbicidal rating CASOB (CASOB (Sicklepod); 0.0625 kg/ha) | Preemergence herbicidal rating ZEAMX (ZEAMX (Corn, Field); 0.0156 kg/ha)
8.0: Preemergence herbicidal rating ZEAMX (ZEAMX (Corn, Field); 0.0625 kg/ha) | Preemergence herbicidal rating ZEAMX (ZEAMX (Corn, Field); 0.1250 kg/ha) | Preemergence herbicidal rating ECHCG (ECHCG (Barnyardgrass) [5]; 0.0625 kg/ha)
6.0: Preemergence herbicidal rating GALAP (GALAP (Galium); 0.2500 kg/ha) | Preemergence herbicidal rating ZEAMX (ZEAMX (Corn, Field); 0.0313 kg/ha) | herbicidal rating TRZAWR ([7]; rate 0.0625 kg/ha) | Postemergence herbicidal rating AMBEL (AMBEL (Ragweed, Common); Rate 0.0156 kg/ha)
5.5: Postemergence herbicidal rating GLXMAW ([6]; Rate 0.0156 kg/ha)
5.0: Preemergence herbicidal rating GALAP (GALAP (Galium); 0.1250 kg/ha) | Preemergence herbicidal rating CASOB (CASOB (Sicklepod); 0.0313 kg/ha) | Postemergence herbicidal rating TRZAWR ([7]; Rate 0.0313 kg/ha)
0.0: Preemergence herbicidal rating GALAP (GALAP (Galium); 0.0156 kg/ha) | Preemergence herbicidal rating GALAP (GALAP (Galium); 0.0313 kg/ha) | Preemergence herbicidal rating ECHCG (ECHCG (Barnyardgrass) [5]; 0.0156 kg/ha)
3.0: Preemergence herbicidal rating IPOHE ([3]; 0.0313 kg/ha) | herbicidal rating ECHCG (ECHCG (Barnyardgrass) [4]; rate 0.0625 kg/ha)
